# Results from patent publication US8937072B2, “Substituted cyanoaniline compounds, preparation and use thereof” (Sinochem Corporation, priority 2011, dated 2015).
# Several values for one entry are separate records, joined by “and”; a condition that tells them apart may be missing. Equal entries are not always repeated.
# Assays:
# cucumber downy mildew = assay: Protectant activity in vivo (whole plant) against cucumber downy mildew
# Description: (§1) The method is as followed: The whole plant is used in this test. The compound is dissolved in a proper solvent to get mother solution. The proper solvent is selected from acetone, methanol, DMF and so on according to their dissolving capability to the sample. The volume rate of solvent and testing solution (v/v) is equal to or less than 5%. The mother solution is diluted with water containing 0.1% tween-80 to get the testing solution whose concentration is designed. The testing solution is sprayed to the host plant by a special plant sprayer. The plant is inoculated with fungus after 24 hours. According to the infecting characteristic of fungus, the plant is stored in a humidity chamber and then transferred into greenhouse after infection is finished. And the other plants are placed in greenhouse directly. The activity of compound is obtained by eyeballing after 7 days in common.
# corn rust = assay: Protectant activity in vivo (whole plant) against corn rust
# Description: as §1
smiles,measurement,setting,value
COC(=O)c1ccc(Nc2c(Cl)c(Cl)c(C#N)c(C#N)c2Cl)cc1 [Compound A-11],protectant activity against cucumber downy mildew in vivo,cucumber downy mildew; dose 400 mg/L,100%
N#Cc1c(Cl)c(Cl)c(Nc2ccc([N+](=O)[O-])cc2F)c(Cl)c1C#N [Compound A-14],protectant activity against cucumber downy mildew in vivo,cucumber downy mildew; dose 25 mg/L,100%
same,protectant activity against cucumber downy mildew in vivo,cucumber downy mildew; dose 50 mg/L,100%
same,protectant activity against cucumber downy mildew in vivo,cucumber downy mildew; dose 100 mg/L,100%
same,protectant activity against cucumber downy mildew in vivo,cucumber downy mildew; dose 400 mg/L,100%
N#Cc1c(Cl)c(Cl)c(Nc2cc([N+](=O)[O-])ccc2Cl)c(Cl)c1C#N [Compound A-16],protectant activity against cucumber downy mildew in vivo,cucumber downy mildew; dose 400 mg/L,100%
N#Cc1c(Cl)c(Cl)c(Nc2ccc(C(F)(F)F)cc2Cl)c(Cl)c1C#N [Compound A-17],protectant activity against cucumber downy mildew in vivo,cucumber downy mildew; dose 400 mg/L,100%
N#Cc1ccc(Nc2c(Cl)c(Cl)c(C#N)c(C#N)c2Cl)cc1C(F)(F)F [Compound A-27],protectant activity against cucumber downy mildew in vivo,cucumber downy mildew; dose 400 mg/L,100%
N#Cc1c(Cl)c(Cl)c(Nc2ccc(F)c(F)c2F)c(Cl)c1C#N [Compound A-41],protectant activity against cucumber downy mildew in vivo,cucumber downy mildew; dose 400 mg/L,100%
N#Cc1c(Cl)c(Cl)c(Nc2c(Cl)cc([N+](=O)[O-])cc2Cl)c(Cl)c1C#N [Compound A-44],protectant activity against cucumber downy mildew in vivo,cucumber downy mildew; dose 100 mg/L,100%
same,protectant activity against cucumber downy mildew in vivo,cucumber downy mildew; dose 400 mg/L,100%
N#Cc1c(Cl)c(Cl)c(Nc2c(Br)cc([N+](=O)[O-])cc2Br)c(Cl)c1C#N [Compound A-45],protectant activity against cucumber downy mildew in vivo,cucumber downy mildew; dose 25 mg/L,100%
same,protectant activity against cucumber downy mildew in vivo,cucumber downy mildew; dose 50 mg/L,100%
same,protectant activity against cucumber downy mildew in vivo,cucumber downy mildew; dose 100 mg/L,100%
same,protectant activity against cucumber downy mildew in vivo,cucumber downy mildew; dose 400 mg/L,100%
Cc1c(Cl)c([N+](=O)[O-])cc([N+](=O)[O-])c1Nc1c(Cl)c(Cl)c(C#N)c(C#N)c1Cl [Compound A-61],protectant activity against cucumber downy mildew in vivo,cucumber downy mildew; dose 400 mg/L,100%
N#Cc1c(Cl)c(Cl)c(Nc2ccc(Br)cn2)c(Cl)c1C#N [Compound A-79],protectant activity against cucumber downy mildew in vivo,cucumber downy mildew; dose 100 mg/L,100%
same,protectant activity against cucumber downy mildew in vivo,cucumber downy mildew; dose 400 mg/L,100%
Cc1ccnc(Nc2c(Cl)c(Cl)c(C#N)c(C#N)c2Cl)c1 [Compound A-80],protectant activity against cucumber downy mildew in vivo,cucumber downy mildew; dose 100 mg/L,100%
same,protectant activity against cucumber downy mildew in vivo,cucumber downy mildew; dose 400 mg/L,100%
Cc1ccc(Nc2c(Cl)c(Cl)c(C#N)c(C#N)c2Cl)nc1 [Compound A-81],protectant activity against cucumber downy mildew in vivo,cucumber downy mildew; dose 400 mg/L,100%
Cc1ccccc1Nc1c(Cl)c(Cl)c(C#N)c(Cl)c1C#N [Compound B-1],protectant activity against corn rust in vivo,corn rust; dose 400 mg/L,100%
N#Cc1ccc(Nc2c(Cl)c(Cl)c(C#N)c(Cl)c2C#N)cc1 [Compound B-10],protectant activity against cucumber downy mildew in vivo,cucumber downy mildew; dose 400 mg/L,100%
N#Cc1c(Cl)c(Cl)c(Nc2ccc(OC(F)(F)F)cc2)c(C#N)c1Cl [Compound B-12],protectant activity against cucumber downy mildew in vivo,cucumber downy mildew; dose 400 mg/L,100%
COC(=O)c1ccc(Nc2c(Cl)c(Cl)c(C#N)c(Cl)c2C#N)cc1 [Compound B-13],protectant activity against cucumber downy mildew in vivo,cucumber downy mildew; dose 400 mg/L,100%
N#Cc1c(Cl)c(Cl)c(Nc2cccc(Cl)c2Cl)c(C#N)c1Cl [Compound B-16],protectant activity against cucumber downy mildew in vivo,cucumber downy mildew; dose 400 mg/L,100%
Cc1cc(Cl)ccc1Nc1c(Cl)c(Cl)c(C#N)c(Cl)c1C#N [Compound B-22],protectant activity against cucumber downy mildew in vivo,cucumber downy mildew; dose 400 mg/L,100%
Cc1cccc(Cl)c1Nc1c(Cl)c(Cl)c(C#N)c(Cl)c1C#N [Compound B-23],protectant activity against cucumber downy mildew in vivo,cucumber downy mildew; dose 400 mg/L,100%
N#Cc1c(Cl)c(Cl)c(Nc2ccc([N+](=O)[O-])cc2[N+](=O)[O-])c(C#N)c1Cl [Compound B-37],protectant activity against cucumber downy mildew in vivo,cucumber downy mildew; dose 400 mg/L,100%
N#Cc1ccc(Nc2c(Cl)c(Cl)c(C#N)c(Cl)c2C#N)cc1C(F)(F)F [Compound B-40],the protectant activity (%) against cucumber downy mildew,cucumber downy mildew; 12.5 mg/L,30%
same,the protectant activity (%) against cucumber downy mildew,cucumber downy mildew; 25 mg/L,98%
same,the protectant activity (%) against cucumber downy mildew,cucumber downy mildew; 50 mg/L,100%
same,the protectant activity (%) against cucumber downy mildew,cucumber downy mildew; 100 mg/L,100%
same,protectant activity against cucumber downy mildew in vivo,cucumber downy mildew; dose 50 mg/L,100%
same,protectant activity against cucumber downy mildew in vivo,cucumber downy mildew; dose 100 mg/L,100%
same,protectant activity against cucumber downy mildew in vivo,cucumber downy mildew; dose 400 mg/L,100%
N#Cc1c(Cl)c(Cl)c(Nc2c(Cl)cc([N+](=O)[O-])cc2Br)c(C#N)c1Cl [Compound B-55],the protectant activity (%) against corn rust,corn rust; 6.25 mg/L,0%
same,the protectant activity (%) against corn rust,corn rust; 25 mg/L,25%
same,the protectant activity (%) against corn rust,corn rust; 100 mg/L,100%
same,the protectant activity (%) against corn rust,corn rust; 400 mg/L,100%
same,protectant activity against corn rust in vivo,corn rust; dose 100 mg/L,100%
same,protectant activity against corn rust in vivo,corn rust; dose 400 mg/L,100%
CNC(=O)c1cc(Cl)cc(C)c1Nc1c(Cl)c(Cl)c(C#N)c(Cl)c1C#N [Compound B-62b],protectant activity against cucumber downy mildew in vivo,cucumber downy mildew; dose 400 mg/L,100%
CCN(CC)c1c(Cl)c(Nc2ccccc2[N+](=O)[O-])c(C#N)c(Cl)c1C#N [Compound B-70],protectant activity against corn rust in vivo,corn rust; dose 400 mg/L,100%
N#Cc1c(F)c(F)c(Nc2ccc([N+](=O)[O-])cc2Cl)c(C#N)c1F [Compound B-95],protectant activity against cucumber downy mildew in vivo,cucumber downy mildew; dose 400 mg/L,100%
N#Cc1c(F)c(F)c(Nc2c(Cl)cc([N+](=O)[O-])cc2Cl)c(C#N)c1F [Compound B-109],protectant activity against cucumber downy mildew in vivo,cucumber downy mildew; dose 50 mg/L,100%
same,protectant activity against cucumber downy mildew in vivo,cucumber downy mildew; dose 100 mg/L,100%
same,protectant activity against cucumber downy mildew in vivo,cucumber downy mildew; dose 400 mg/L,100%
N#Cc1c(F)c(F)c(Nc2c(Br)cc([N+](=O)[O-])cc2Br)c(C#N)c1F [Compound B-115],protectant activity against cucumber downy mildew in vivo,cucumber downy mildew; dose 400 mg/L,100%
N#Cc1cc([N+](=O)[O-])cc(Br)c1Nc1c(F)c(F)c(C#N)c(F)c1C#N [Compound B-116],protectant activity against cucumber downy mildew in vivo,cucumber downy mildew; dose 400 mg/L,100%
N#Cc1c(Cl)c(Cl)c(Nc2ncc(C(F)(F)F)cc2Cl)c(C#N)c1Cl [Compound B-125],protectant activity against cucumber downy mildew in vivo,cucumber downy mildew; dose 50 mg/L,98%
same,protectant activity against cucumber downy mildew in vivo,cucumber downy mildew; dose 100 mg/L,100%
same,protectant activity against cucumber downy mildew in vivo,cucumber downy mildew; dose 400 mg/L,100%
N#Cc1c(Cl)c(Cl)c(Nc2c(Cl)cncc2Cl)c(C#N)c1Cl [Compound B-139],the protectant activity (%) against cucumber downy mildew,cucumber downy mildew; 12.5 mg/L,100%
same,the protectant activity (%) against cucumber downy mildew,cucumber downy mildew; 25 mg/L,98%
same,the protectant activity (%) against cucumber downy mildew,cucumber downy mildew; 50 mg/L,98%
same,the protectant activity (%) against cucumber downy mildew,cucumber downy mildew; 100 mg/L,100%
same,protectant activity against cucumber downy mildew in vivo,cucumber downy mildew; dose 12.5 mg/L,98%
same,protectant activity against cucumber downy mildew in vivo,cucumber downy mildew; dose 50 mg/L,98%
same,protectant activity against cucumber downy mildew in vivo,cucumber downy mildew; dose 100 mg/L,100%
same,protectant activity against cucumber downy mildew in vivo,cucumber downy mildew; dose 400 mg/L,100%
N#Cc1ccc(Nc2c(Cl)c(C#N)c(Cl)c(Cl)c2C#N)cc1 [Compound C-12],protectant activity against cucumber downy mildew in vivo,cucumber downy mildew; dose 400 mg/L,100%
N#Cc1c(Cl)c(Cl)c(C#N)c(Nc2ccc(OC(F)(F)F)cc2)c1Cl [Compound C-13],protectant activity against cucumber downy mildew in vivo,cucumber downy mildew; dose 400 mg/L,100%
N#Cc1c(Cl)c(Cl)c(C#N)c(Nc2ccc([N+](=O)[O-])cc2Cl)c1Cl [Compound C-28],protectant activity against cucumber downy mildew in vivo,cucumber downy mildew; dose 400 mg/L,100%
N#Cc1c(Cl)c(Cl)c(C#N)c(Nc2cc([N+](=O)[O-])ccc2Cl)c1Cl [Compound C-29],protectant activity against corn rust in vivo,corn rust; dose 400 mg/L,80%
N#Cc1c(Cl)c(Cl)c(C#N)c(Nc2ccc(C(F)(F)F)cc2Cl)c1Cl [Compound C-30],protectant activity against cucumber downy mildew in vivo,cucumber downy mildew; dose 100 mg/L,90%
same,protectant activity against cucumber downy mildew in vivo,cucumber downy mildew; dose 400 mg/L,100%
N#Cc1c(Cl)c(Cl)c(C#N)c(Nc2cc(C(F)(F)F)ccc2Cl)c1Cl [Compound C-32],protectant activity against cucumber downy mildew in vivo,cucumber downy mildew; dose 400 mg/L,100%
COc1cc([N+](=O)[O-])ccc1Nc1c(Cl)c(C#N)c(Cl)c(Cl)c1C#N [Compound C-35],protectant activity against cucumber downy mildew in vivo,cucumber downy mildew; dose 400 mg/L,100%
N#Cc1ccc(Nc2c(Cl)c(C#N)c(Cl)c(Cl)c2C#N)cc1C(F)(F)F [Compound C-38],protectant activity against cucumber downy mildew in vivo,cucumber downy mildew; dose 100 mg/L,100% and 90%
same,protectant activity against cucumber downy mildew in vivo,cucumber downy mildew; dose 400 mg/L,100%
N#Cc1c(Cl)c(Cl)c(C#N)c(Nc2ccc(Cl)c(C(F)(F)F)c2)c1Cl [Compound C-39],protectant activity against corn rust in vivo,corn rust; dose 400 mg/L,100%
N#Cc1c(Cl)c(Cl)c(C#N)c(Nc2c(Br)cc([N+](=O)[O-])cc2Br)c1Cl [Compound C-41],the protectant activity (%) against corn rust,corn rust; 6.25 mg/L,50%
same,the protectant activity (%) against corn rust,corn rust; 25 mg/L,90%
same,the protectant activity (%) against corn rust,corn rust; 100 mg/L,100%
same,the protectant activity (%) against corn rust,corn rust; 400 mg/L,100%
same,protectant activity against corn rust in vivo,corn rust; dose 25 mg/L,90%
same,protectant activity against corn rust in vivo,corn rust; dose 100 mg/L,100%
same,protectant activity against corn rust in vivo,corn rust; dose 400 mg/L,100%
N#Cc1c(Cl)c(Cl)c(C#N)c(Nc2ccc(F)c(F)c2F)c1Cl [Compound C-51],protectant activity against cucumber downy mildew in vivo,cucumber downy mildew; dose 400 mg/L,100%
CNC(=O)c1cc(Cl)cc(C)c1Nc1c(Cl)c(C#N)c(Cl)c(Cl)c1C#N [Compound C-56],protectant activity against cucumber downy mildew in vivo,cucumber downy mildew; dose 400 mg/L,100%
N#Cc1c(F)c(F)c(C#N)c(Nc2ccc([N+](=O)[O-])cc2)c1F [Compound C-70],protectant activity against cucumber downy mildew in vivo,cucumber downy mildew; dose 400 mg/L,100%
N#Cc1c(F)c(F)c(C#N)c(Nc2ccc([N+](=O)[O-])cc2F)c1F [Compound C-79],protectant activity against cucumber downy mildew in vivo,cucumber downy mildew; dose 400 mg/L,100%
N#Cc1c(F)c(F)c(C#N)c(Nc2cc([N+](=O)[O-])ccc2Cl)c1F [Compound C-81],protectant activity against cucumber downy mildew in vivo,cucumber downy mildew; dose 400 mg/L,100%
COc1cc([N+](=O)[O-])ccc1Nc1c(F)c(C#N)c(F)c(F)c1C#N [Compound C-88],protectant activity against cucumber downy mildew in vivo,cucumber downy mildew; dose 50 mg/L,98%
N#Cc1c(F)c(F)c(C#N)c(Nc2ccc(Cl)cc2[N+](=O)[O-])c1F [Compound C-89],protectant activity against corn rust in vivo,corn rust; dose 400 mg/L,80%
N#Cc1c(F)c(F)c(C#N)c(Nc2c(Cl)cc([N+](=O)[O-])cc2Cl)c1F [Compound C-93],protectant activity against cucumber downy mildew in vivo,cucumber downy mildew; dose 400 mg/L,100%
N#Cc1c(F)c(F)c(C#N)c(Nc2c(Br)cc([N+](=O)[O-])cc2Br)c1F [Compound C-96],protectant activity against cucumber downy mildew in vivo,cucumber downy mildew; dose 50 mg/L,98%
N#Cc1cc([N+](=O)[O-])cc(Br)c1Nc1c(F)c(C#N)c(F)c(F)c1C#N [Compound C-97],protectant activity against cucumber downy mildew in vivo,cucumber downy mildew; dose 400 mg/L,100%
N#Cc1c(F)c(F)c(C#N)c(Nc2c(Cl)cc([N+](=O)[O-])cc2Br)c1F [Compound C-99],protectant activity against corn rust in vivo,corn rust; dose 400 mg/L,100%
N#Cc1cc(C#N)c(Nc2c(Cl)c(C#N)c(Cl)c(Cl)c2C#N)nc1Cl [Compound C-114],protectant activity against corn rust in vivo,corn rust; dose 400 mg/L,100%
